Experimental findings from PubChem BioAssay (NCI) are described below.

Some test systems named below: COLO 205 colon; 786-0 renal; SF-268 CNS; IGROV1 ovarian; MOLT-4 leukemia; LOX IMVI melanoma; UACC-62 melanoma; RXF 393 renal; HT29 colon; HOP-92 NSCLC; HS 578T breast; MDA-MB-435; MDA-MB-231 breast.
Common to all, as to test: DTP human tumour cell line panel, 48 h

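These data come from cells grown in 96-well plates and exposed to compound for 48 hours at five concentrations. TGI is the concentration that stops growth completely.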

The TGI is the concentration at which net growth stops. Turning to `Cc1cc2oc(=O)[nH]c(=S)c2c(C)c1C`, the total growth inhibition concentration (TGI) with COLO 205 colon, in the assay with 786-0 renal, with SF-268 CNS, in the assay with IGROV1 ovarian, with MOLT-4 leukemia and in the assay with LOX IMVI melanoma was greater than 100 µM in each case. Besides, the TGI in the assay on UACC-62 melanoma, in the assay with RXF 393 renal, with HT29 colon and in the assay with HOP-92 NSCLC was greater than 100 µM each time.
As for `CCOC(=O)CC[C@@H](NC(=O)c1ccc(N[C@@H]2c3cc4c(cc3C(c3cc(OC)c(O)c(OC)c3)C3C(=O)OC[C@@H]32)OCO4)cc1)C(=O)OCC` (some centres not stated), the concentration for total growth inhibition (TGI) in the assay on 786-0 renal is greater than 10 µM; in the assay on SF-268 CNS it was 0.0686 µM; with IGROV1 ovarian, 0.32 µM; in the assay on MOLT-4 leukemia, greater than 10 µM; with UACC-62 melanoma, 0.0557 µM; in the assay with HT29 colon, 0.751 µM. Further, the TGI in the assay on HOP-92 NSCLC was determined as 0.0808 µM.
In the case of `COc1ccc(C2C(Cl)C(=O)N2NC(=O)Cc2ccccc2)cc1` (configuration not stated), the total growth inhibition concentration (TGI) in the assay with COLO 205 colon, with 786-0 renal, in the assay on SF-268 CNS, with IGROV1 ovarian, in the assay with MOLT-4 leukemia and with LOX IMVI melanoma was greater than 100 µM throughout. Also, the TGI in the assay with UACC-62 melanoma, in the assay with RXF 393 renal and in the assay on HT29 colon was greater than 100 µM in each case.
Consider `COC12C=CC(CC1)C1C(=O)c3c(C)c(C)n(C)c3C(=O)C12` (configuration not stated), for which the concentration for total growth inhibition (TGI) in the assay with COLO 205 colon, with HS 578T breast, in the assay on 786-0 renal, in the assay with MDA-MB-435, with SF-268 CNS and with IGROV1 ovarian was greater than 100 µM each time. For the same compound, the total growth inhibition concentration (TGI) with MOLT-4 leukemia, in the assay with LOX IMVI melanoma, with UACC-62 melanoma, in the assay with RXF 393 renal and in the assay with HT29 colon was greater than 100 µM throughout.
Take `COC(=O)CC1C(=O)OCc2c1cc1n(c2=O)Cc2c-1nc1ccccc1c2OC` (configuration not stated): the TGI with COLO 205 colon is greater than 100 µM; in the assay with 786-0 renal, greater than 100 µM; in the assay with SF-268 CNS it was greater than 100 µM; with IGROV1 ovarian it was greater than 100 µM; in the assay on MOLT-4 leukemia, 32.3 µM; in the assay on LOX IMVI melanoma, greater than 100 µM. In addition, the TGI with UACC-62 melanoma is greater than 100 µM; in the assay with RXF 393 renal it was 70.2 µM; in the assay on HT29 colon, greater than 100 µM; in the assay with HOP-92 NSCLC, greater than 100 µM.
For the compound `O=C1CCC2SC1CCC2=O`, the TGI in the assay with COLO 205 colon, in the assay on 786-0 renal, with MDA-MB-435, in the assay on SF-268 CNS, in the assay with IGROV1 ovarian and in the assay on MOLT-4 leukemia was greater than 100 µM each time. Besides, the TGI with MDA-MB-231 breast, in the assay on LOX IMVI melanoma, in the assay with RXF 393 renal, in the assay with HT29 colon and in the assay on HOP-92 NSCLC was greater than 100 µM each time.
With `COc1cc2[nH]c(-c3cccc(N(C)C)c3)cc(=O)c2cc1OC`, the TGI was 19.1 µM in the assay with COLO 205 colon; greater than 100 µM in the assay on 786-0 renal; greater than 100 µM in the assay with SF-268 CNS; greater than 100 µM in the assay on IGROV1 ovarian; greater than 100 µM in the assay on MOLT-4 leukemia; greater than 100 µM with LOX IMVI melanoma. Moreover, the figures for the TGI in the assay on UACC-62 melanoma, with HT29 colon and with HOP-92 NSCLC were greater than 100 µM, greater than 25.9 µM and greater than 100 µM, respectively.
`CCN(CC)Cc1cc(Nc2c3ccccc3nc3c2[nH]c2ccccc23)ccc1O`: the TGI with COLO 205 colon was 2.19 µM; in the assay on 786-0 renal, 2.8 µM; in the assay on IGROV1 ovarian it was 4.49 µM; with MOLT-4 leukemia it was greater than 100 µM; in the assay on LOX IMVI melanoma, 2.57 µM; with UACC-62 melanoma, 3.01 µM. Moreover, the TGI with RXF 393 renal is 2.77 µM; in the assay on HT29 colon, 2.01 µM; with HOP-92 NSCLC it was 3.46 µM.
Consider `CC1NC(/C(=C/c2ccccc2O)NC(=O)c2ccccc2)OC1=O` (configuration not stated), for which the TGI with COLO 205 colon, in the assay on 786-0 renal, in the assay with MDA-MB-435, in the assay on IGROV1 ovarian, with MOLT-4 leukemia and in the assay with MDA-MB-231 breast was greater than 50 µM throughout. Further, the TGI in the assay on LOX IMVI melanoma was greater than 50 µM; in the assay on UACC-62 melanoma, greater than 50 µM; in the assay on HT29 colon it was greater than 50 µM; in the assay on HOP-92 NSCLC, 46.6 µM.
Take `CCC1(N=[N+]=[N-])C(=O)Nc2cc(C)ccc2C1=O` (configuration not stated): the TGI with COLO 205 colon, in the assay with 786-0 renal, with SF-268 CNS, with IGROV1 ovarian, with MOLT-4 leukemia and in the assay on LOX IMVI melanoma was greater than 100 µM each time. Moreover, the TGI in the assay with UACC-62 melanoma, in the assay with HT29 colon and in the assay on HOP-92 NSCLC was greater than 100 µM throughout.
Take `O=C(c1ccncc1)n1nc(-c2ccccc2)c(N=Nc2ccc([N+](=O)[O-])cc2)c1-c1ccccc1`: the TGI with COLO 205 colon, in the assay on 786-0 renal, in the assay on SF-268 CNS, with IGROV1 ovarian, in the assay with MOLT-4 leukemia and in the assay on UACC-62 melanoma was greater than 100 µM throughout. The TGI in the assay with HT29 colon and in the assay on HOP-92 NSCLC was greater than 100 µM each time.
For the compound `C=C[C@@]1(C)CC(=O)[C@]2(O)[C@@]3(C)[C@@H](OC(C)=O)CCC(C)(C)[C@@H]3[C@H](OC(C)=O)[C@H](OC(C)=O)[C@@]2(C)O1`, the TGI in the assay with 786-0 renal, in the assay on MDA-MB-435, in the assay with IGROV1 ovarian, with MOLT-4 leukemia, in the assay with MDA-MB-231 breast and in the assay with LOX IMVI melanoma was greater than 100 µM in each case. The TGI with UACC-62 melanoma, in the assay with HT29 colon and with HOP-92 NSCLC was greater than 100 µM each time.
With `O=c1cc(-c2cccc(OC(F)(F)F)c2)[nH]c2cc3c(cc12)OCO3`, the TGI with COLO 205 colon was greater than 32.2 µM; in the assay with HS 578T breast, 4.9 µM; with 786-0 renal, 0.75 µM; in the assay on MDA-MB-435, 0.0367 µM; with SF-268 CNS it was greater than 100 µM; in the assay on IGROV1 ovarian it was 16.3 µM. Besides, the TGI with MOLT-4 leukemia was greater than 100 µM; with RXF 393 renal, greater than 89.4 µM; with HT29 colon it was 26.6 µM; in the assay on HOP-92 NSCLC it was greater than 73.6 µM.
As to `Cc1cc(Cl)ccc1N=NC(=O)NNc1ccc(Cl)cc1C`, the TGI in the assay with 786-0 renal came out at 29.9 µM; in the assay on MDA-MB-435 it was 39.7 µM; in the assay with SF-268 CNS, 37.5 µM; in the assay on IGROV1 ovarian, 20.7 µM; with MOLT-4 leukemia, 48.9 µM; in the assay on MDA-MB-231 breast, 26.6 µM. Moreover, the results for the total growth inhibition concentration (TGI) in the assay on LOX IMVI melanoma, with UACC-62 melanoma and in the assay on HT29 colon were 30.6 µM, 24.8 µM and 36.4 µM, respectively.
As to `O=C1CCCC2=C1CC1=C(CCCC1=O)N2c1cccc2ccccc12`, the TGI with HS 578T breast, in the assay with 786-0 renal, with SF-268 CNS, in the assay with IGROV1 ovarian, in the assay on MOLT-4 leukemia and in the assay with LOX IMVI melanoma was greater than 100 µM throughout. The TGI in the assay on UACC-62 melanoma was greater than 100 µM; in the assay with RXF 393 renal it was 54.4 µM; in the assay with HT29 colon, greater than 100 µM; in the assay with HOP-92 NSCLC it was greater than 100 µM.
As for `NC1CC(=O)c2cc(Br)sc21` (configuration not stated), the TGI in the assay on COLO 205 colon, in the assay with 786-0 renal, in the assay with MDA-MB-435, in the assay with SF-268 CNS, with IGROV1 ovarian and in the assay on MOLT-4 leukemia was greater than 100 µM throughout. Besides, the concentration for total growth inhibition (TGI) in the assay with MDA-MB-231 breast, in the assay on UACC-62 melanoma, in the assay on RXF 393 renal and with HT29 colon was greater than 100 µM each time.
With `CNC(=O)CCNC(=O)CCC(=O)OC`, the TGI with COLO 205 colon, in the assay with 786-0 renal, in the assay on MDA-MB-435, in the assay with SF-268 CNS, in the assay on MOLT-4 leukemia and in the assay with MDA-MB-231 breast was greater than 100 µM in each case. For the same compound, the TGI in the assay on UACC-62 melanoma, in the assay with RXF 393 renal and with HT29 colon was greater than 100 µM in each case.
Take `COc1ccc2c3ccc4c(c3n(C)c2c1)C(=O)c1ccccc1C4=O`: the TGI in the assay with COLO 205 colon, in the assay on 786-0 renal, with SF-268 CNS, in the assay with IGROV1 ovarian, in the assay with MOLT-4 leukemia and in the assay with UACC-62 melanoma was greater than 100 µM throughout. Further, the TGI in the assay on RXF 393 renal, with HT29 colon and in the assay on HOP-92 NSCLC was greater than 100 µM each time.
`COC(=N)C12C(N)=NC(OC)(OC)C1(C#N)C21C(=O)N(c2ccccc2)N=C1C` (configuration not stated): the TGI with COLO 205 colon, with 786-0 renal, in the assay with MDA-MB-435, in the assay with SF-268 CNS, in the assay on IGROV1 ovarian and with MOLT-4 leukemia was greater than 100 µM each time. In addition, the TGI with MDA-MB-231 breast, in the assay on UACC-62 melanoma, with RXF 393 renal, in the assay on HT29 colon and with HOP-92 NSCLC was greater than 100 µM each time.
For `CC1=NN(C(=O)Cc2ccccc2)C(=O)/C1=C\C=C\c1ccccc1`, the TGI in the assay with COLO 205 colon, in the assay on 786-0 renal, with SF-268 CNS, with MOLT-4 leukemia, with LOX IMVI melanoma and in the assay on HT29 colon was greater than 100 µM in each case.
Consider `S=C(Nc1cccc(Cl)c1)Nc1ccccn1`, for which the TGI in the assay on COLO 205 colon, with HS 578T breast, in the assay with 786-0 renal, in the assay with MDA-MB-435, with SF-268 CNS and in the assay on IGROV1 ovarian was greater than 100 µM throughout. For the same compound, the TGI with MOLT-4 leukemia, in the assay with LOX IMVI melanoma, in the assay with UACC-62 melanoma, with RXF 393 renal and with HT29 colon was greater than 100 µM throughout.
